From patent EP3135113A1, “USE OF HERBICIDAL COMPOSITIONS FOR CONTROLLING UNWANTED VEGETATION” (BASF SE, priority 2015, dated 2017)

System: Amaranthus palmeri
Experiment: field test, post-emergence spray, visual injury rating of Palmer amaranth (scale 0 to 100)
Format: in vivo
Settings: 3 days after treatment, 0.25% by volume non-ionic surfactant (Induce), 185 liter/ha
Excerpt: The following examples summarized in table 1 serve to illustrate the invention: • Dicamba was applied as Engenia™ herbicide [BAPMA salt - (bis(3-aminopropyl)methylamine))], while 2,4-DB was applied as the commercially available Butyrac® 200 (dimethylamine salt). Herbicides were applied at an appropriate weight of each product dissolved in 1 liter of water. All herbicide treatments were applied with 0.25% by volume of a non-ionic surfactant (Induce®; an adjuvant composition consisting of alkyl aryl polyoxyalkane ethers, alkanolamides, dimethyl siloxane and free fatty acids). The spray solution was applied by a CO2 powered backpack sprayer delivering the spray solution at a rate of 185 liter/ha. The spray solution was applied to a field naturally populated with Palmer amaranth (Amaranthus palmeri) with an average height of 4-6 inches in height, however, plants both larger and smaller plants were in the field at the time of application as well. Palmer amaranth was assessed for visual injury 3 days after treatment and injury was rated on a scale from 0 to 100, whereby 0 equals no herbicidal response and 100 equals complete control of the Palmer amaranth.

With “4-(2,4-dichlorophenoxy)butanoic acid [2,4-DB]” the “herbicidal activity against Amaranthus palmeri (% control) found” value (“herbicidal activity … (% control) found” for short) (Exp. No. 2, 2,4-DB 17.5 g/ha a.i.) was 0%, the “herbicidal activity … (% control) found” value (Exp. No. 3, 2,4-DB 35 g/ha a.i.) was 5% and the “herbicidal activity … (% control) found” value (Exp. No. 4, 2,4-DB 52.5 g/ha a.i.) was 15%.
`COc1c(Cl)ccc(Cl)c1C(=O)O` [dicamba, 3,6-dichloro-2-methoxybenzoic acid] was tested, and the “herbicidal activity … (% control) found” value (Exp. No. 1, dicamba 420 g/ha a.i.) was 60%.
